Experimental data published in publication PMC9739695, “Water-Soluble Salts Based on Benzofuroxan Derivatives—Synthesis and Biological Activity” (International Journal of Molecular Sciences, 2022).
Where two headings read alike, the source gives them in different places.

Assays:
wheat seeds = experiment: Pre-sowing seed treatment, sowing qualities of wheat seeds; assay type: in vivo; conditions: for germination energy: control 82; for laboratory germination: control 85.7
Experimental: (§1) When evaluating the effectiveness of treatment of wheat, alfalfa, barley, rice, and sorghum seeds as fungicidal and bactericidal agents with preparation compounds at concentrations of 10, 20, and 40 mmol, their effect on the suppression of seed infection was evaluated.
(§2) […] The sowing qualities were evaluated (germination energy for 3–4 days, laboratory germination for 7–8 days) according to GOST 12038-84 [60]. Sowing qualities of seeds were determined in wet chambers. According to the sample, 50 seeds were taken in 4-fold repetition.

alfalfa seeds = experiment: Pre-sowing seed treatment, sowing qualities of alfalfa seeds; assay type: in vivo; conditions: control 76
Experimental: as §1, §2

[1] = system: fungal microflora (mushrooms) on alfalfa seeds; experiment: Growth of fungal microflora on treated alfalfa seeds; assay type: cell-based
Experimental: (§3) During phytopathological analyses of agricultural crops, the species composition of fungal and bacterial microflora was established. Laboratory studies were carried out on two nutrient media potato-agar (ingredients: potatoes—200 g; agar-agar—20 g; distilled water—1000 mL.) and potato-dextrose agar (ingredients: potatoes—200 g;dextrose—20 g; agar-agar—20 g; distilled water—1000 mL), according to the guidelines.
When evaluating the effectiveness of treatment of wheat, alfalfa, barley, rice, and sorghum seeds as […], their effect on the suppression of seed infection was evaluated.

barley seeds = experiment: Pre-sowing seed treatment, sowing qualities of barley seeds; assay type: in vivo; conditions: control 95.2
Experimental: as §1, §2

[2] = system: bacterial microflora on barley seeds; experiment: Growth of bacterial microflora on treated barley seeds; assay type: cell-based
Experimental: as §3, §1

rice seeds = experiment: Pre-sowing seed treatment, sowing qualities of rice seeds; assay type: in vivo; conditions: for germination energy: control 71.4; for laboratory germination: control 95.2
Experimental: as §1, §2

[3] = system: bacterial microflora on rice seeds; experiment: Growth of bacterial microflora on treated rice seeds; assay type: cell-based
Experimental: as §3, §1

sorghum seeds = experiment: Pre-sowing seed treatment, sowing qualities of sorghum seeds; assay type: in vivo; conditions: for germination energy: control 52.3; for laboratory germination: control 57
Experimental: as §1, §2

SH-SY5Y (neuroblastoma) = experiment: Cell viability, MTT test; assay type: cell-based, Human; conditions: Homo sapiens, SH-SY5Y, test range 0.1 to 100 μM, read-out: IC50 (concentration causing 50% inhibition of cell population growth)
Experimental: (§4) In this work, the cytotoxic potential of the water-soluble salts based on benzofuroxan was determined by the effect of compounds on the survival of the cell tumor origin cultures (SH-SY5Y, Hep2, A549, HeLa) using the MTT test. To understand how the synthesized compounds can influence the healthy microenvironment in the body, the effect of substances on the viability of a normal Hek 293 cell culture was additionally evaluated.
(§5) Human cell cultures of tumor origin—SH-SY5Y (neuroblastoma), HeLa (cervical tumor), Hep-2 (larynx carcinoma), A549 (adenocarcinomic human alveolar basal epithelial cells)—and normal cell line Hek 293 (human embryonic kidneys), provided by the Laboratory of Tumor Cell Genetics of the Scientific Research Institute of Carcinogenesis, N.N. Blokhin National Medical Research Center of Oncology, as well as the Institute of Cytology of the Russian Academy of Sciences, were grown in a nutrient medium DMEM (PanEco, Moscow, Russia) and MEM (PanEco, Moscow, Russia), containing fetal bovine serum (10% by volume) (ThermoFisher Scientific, Paisley, UK), Glutamax (2 mM) (Gibco, Scotland, UK), and penicillin-streptomycin (1% by volume) (PanEco, Moscow, Russia). The cultivation was carried out at 37 °C in a humidified CO2 atmosphere (5%).
(§6) Cell viability was determined by MTT test. Cells were seeded in a 96-well plate in the amount of 1 × 10^4 cells/200µLof complete nutrient medium and cultured at 37 °C in CO2 (5%). After 24 h of incubation, various concentrations of test compounds in the range from 0.1 to 100 μM, were added to the cell cultures, and then the cells were cultured under the same conditions for 24 and 72 h. For each concentration, the experiment was carried out in triplicate.
(§7) All compounds were dissolved in DMSO, then diluted with the medium to the required concentration. […] The DMSO was also added to the control wells in a volume of 1%. After the incubation time, MTT (3-(4,5-dimethylthiazol-2-yl)-2,5-diphenyltetrazolium bromide, 5 mg/mL) was added to each well and plates were additionally incubated for 2 h (until the characteristic color appeared).
(§8) Using a plate analyzer (Cytation3, BioTech Instruments Inc., Winooski, VT, USA), the optical density was determined at 530 nm. The concentration value causing 50% inhibition of cell population growth (IC50) was determined from dose-dependent curves.

[4] = system: A549 (adenocarcinomic human alveolar basal epithelial cells); experiment: Cell viability, MTT test; assay type: cell-based; conditions: test range 0.1 to 100 μM, read-out: IC50 (concentration causing 50% inhibition of cell population growth)
Experimental: as §4, §5, §6, §7, §8

HeLa (cervical tumor) = experiment: Cell viability, MTT test; assay type: cell-based; conditions: Homo sapiens, test range 0.1 to 100 μM, read-out: IC50 (concentration causing 50% inhibition of cell population growth)
Experimental: as §4, §5, §6, §7, §8

Hep-2 (larynx carcinoma) = experiment: Cell viability, MTT test; assay type: cell-based; conditions: Homo sapiens, HEp-2, test range 0.1 to 100 μM, read-out: IC50 (concentration causing 50% inhibition of cell population growth)
Experimental: as §4, §5, §6, §7, §8

[5] = system: Hek 293 (human embryonic kidneys); experiment: Cell viability, MTT test, normal cell line; assay type: cell-based; conditions: HEK293, Hek 293 normal cells, test range 0.1 to 100 μM, read-out: IC50 (concentration causing 50% inhibition of cell population growth)
Experimental: as §4, §5, §6, §7, §8

`O=[N+]([O-])c1c(Cl)cc2c(no[n+]2[O-])c1NCCN1CCOCC1` [4d, 6-chloro-4-(2-(morpholino-4-ium)ethylamino)-5-nitrobenzo[c][1,2,5]oxadiazole 1-oxide chloride] was tested, and the germination energy (wheat seeds; 10 mmol) was 47.6%, the laboratory germination (wheat seeds; 10 mmol) was 47.6% and the germination energy (wheat seeds; 20 mmol) was 71.4%. For the same compound, the laboratory germination (wheat seeds; 20 mmol) was 71.4%, the “sowing qualities of seeds compared with control” value (wheat seeds; 40 mmol) was “higher than in the case of controls” and the germination energy (wheat seeds; 40 mmol) was 98%. It also gave a laboratory germination (wheat seeds; 40 mmol) of 98.5%, a germination energy (alfalfa seeds; 10 mmol) of 43.3% and a laboratory germination (alfalfa seeds; 10 mmol) of 50%. The germination energy (alfalfa seeds; 20 mmol) was 63.3%, the laboratory germination (alfalfa seeds; 20 mmol) was 73.3% and the germination energy (alfalfa seeds; 40 mmol) was 78%. The laboratory germination (alfalfa seeds; 40 mmol) was 80.5%, the “effect on fungal microflora” value ([1]; 10 mmol) was “positive effect on the suppression of fungal microflora” and the “effect on fungal microflora” value ([1]; 20 mmol) was “positive effect on the suppression of fungal microflora”. The germination energy (barley seeds; 10 mmol) was 71.4%, the laboratory germination (barley seeds; 10 mmol) was 71.4% and the germination energy (barley seeds; 20 mmol) was 66.6%. The laboratory germination (barley seeds; 20 mmol) was 66.6%, the germination energy (barley seeds; 40 mmol) was 95% and the laboratory germination (barley seeds; 40 mmol) was 98.5%. For the same compound, the “effect on bacterial microflora” value ([2]; 10 mmol) was “slight suppression of the bacterial microflora”, the “effect on bacterial microflora” value ([2]; 40 mmol) was “slight suppression of the bacterial microflora” and the germination energy (rice seeds; 10 mmol) was 52.3%. The laboratory germination (rice seeds; 10 mmol) was 52.3%, the germination energy (rice seeds; 20 mmol) was 47.6% and the laboratory germination (rice seeds; 20 mmol) was 95.2%. For the same compound, the “sowing qualities of seeds compared with control” value (rice seeds; 40 mmol) was “better results than the control”, the germination energy (rice seeds; 40 mmol) was 99% and the laboratory germination (rice seeds; 40 mmol) was 99%. The “effect on bacterial microflora” value ([3]; 10 mmol) was “positive effect on the suppression of bacterial microflora”, the “effect on bacterial microflora” value ([3]; 20 mmol) was “positive effect on the suppression of bacterial microflora” and the germination energy (sorghum seeds; 10 mmol) was 33.3%. The laboratory germination (sorghum seeds; 10 mmol) was 40%, the “sowing qualities of seeds compared with control” value (sorghum seeds; 20 mmol) was “higher than in the control” and the germination energy (sorghum seeds; 20 mmol) was 76.1%. The laboratory germination (sorghum seeds; 20 mmol) was 80.9%, the germination energy (sorghum seeds; 40 mmol) was 58.5% and the laboratory germination (sorghum seeds; 40 mmol) was 61.5%. The IC50 (SH-SY5Y (neuroblastoma); incubation 24 h) was 24.3 ± 1.91 µM, the IC50 (SH-SY5Y (neuroblastoma); incubation 72 h) was 22.8 ± 1.9 µM and the IC50 ([4]; A549, incubation 24 h) was > 100 µM. It also gave an IC50 ([4]; A549, incubation 72 h) of 98.21 ± 0.1 µM, an IC50 (HeLa (cervical tumor); incubation 24 h) of 40.5 ± 1.9 µM and an IC50 (HeLa (cervical tumor); incubation 72 h) of 35.47 ± 0.12 µM. The IC50 (Hep-2 (larynx carcinoma); Hep2, incubation 24 h) was 91.3 ± 1.4 µM, the IC50 (Hep-2 (larynx carcinoma); Hep2, incubation 72 h) was 89.9 ± 3.12 µM and the IC50 ([5]; incubation 24 h) was 40.8 ± 2.84 µM. For the same compound, the IC50 ([5]; incubation 72 h) was 28.1 ± 0.93 µM.
